US9580444B2, “Polycyclic pyrazolinone derivative and herbicide comprising same as effective component thereof” (priority 2013, dated 2017)

Tested on: Amaranthus viridis (green amaranthus)
Assay: Test Example-4: herbicidal effect by a foliage treatment after weeds are generated under upland field conditions
Format: in vivo
Settings: 500 g a.i/ha, foliage treatment after emergence, about 14 days after treatment, score 0-5
Text: (§1) Using the formulation prepared according to the methods described above, the herbicidal effect of the bicyclic pyrazolinone derivative of the invention according to the methods shown in Test Examples below was examined. The herbicidal effect with respect to the test weeds or the phytotoxicity with respect to the test crops was examined according to the following criteria, and evaluated in six stage scores of 0 to 5. A vat having an area of 65 cm^2 and a depth of 2 cm was filled with upland soil, then, seeds of Amaranthus viridis (green amaranthus), Abutilon theophrasti (velvetleaf), Chenopodium album (common lambsquarters), […]. While watering was suitably performed on there, the seeds were grown for 14 days. A wettable powder or an emulsifiable concentrate of the compound of the present invention prepared according to Formulation Example was diluted, and a spray treatment was uniformly performed on the foliage portion of the plant so as to be a predetermined dosage in the amount of water of 4000 L per hectare. The herbicidal effect with respect to the test weeds and the phytotoxicity with respect to corn about 14 days after the treatment were evaluated according to the evaluation criteria in six stages of 0 to 5 described above.

| SMILES | Herbicidal effect Amaranthus viridis |
| --- | --- |
| CCS(=O)(=O)Nc1cc(-c2c(Cl)n3n(c2=O)CCCC3)c(F)cc1Cl [Example 5-51] | 5 (Herbicidal effect/phytotoxicity was 90% or greater) |
| COc1cc(-c2c(Cl)n3n(c2=O)CCCC3)ccc1Cl [Example 1-44] | 5 (Herbicidal effect/phytotoxicity was 90% or greater) |
| C=CCOc1ccccc1Oc1cc(-c2c(Cl)n3n(c2=O)CCCC3)c(F)cc1Cl [Example 3-21] | 5 (Herbicidal effect/phytotoxicity was 90% or greater) |
| O=c1c(-c2cc([N+](=O)[O-])c(Cl)cc2F)c(C(F)(F)F)n2n1CCCC2 [Example 1-336] | 5 (Herbicidal effect/phytotoxicity was 90% or greater) |
| C#CCOc1cc(-c2c(Cl)n3n(c2=O)CCOCC3)ccc1Cl [Example 1-66] | 5 (Herbicidal effect/phytotoxicity was 90% or greater) |
| CC#CCOc1ccccc1Oc1cc(-c2c(Cl)n3n(c2=O)CCCC3)c(F)cc1Cl [Example 3-30] | 5 (Herbicidal effect/phytotoxicity was 90% or greater) |
| C=CCOC(=O)C=C(COc1ccccc1Oc1cc(-c2c(Cl)n3n(c2=O)CCCC3)c(F)cc1Cl)OC [Example 3-24] | 5 (Herbicidal effect/phytotoxicity was 90% or greater) |
| CC(C)Oc1ccccc1Oc1cc(-c2c(Cl)n3n(c2=O)CCCC3)c(F)cc1Cl [Example 3-8] | 5 (Herbicidal effect/phytotoxicity was 90% or greater) |
| COC(=O)C=C(COc1ccccc1Oc1cc(-c2c(Cl)n3n(c2=O)CCCC3)c(F)cc1Cl)OC [Example 3-23] | 5 (Herbicidal effect/phytotoxicity was 90% or greater) |
| CC1(COc2cc(-c3c(Cl)n4n(c3=O)CCCC4)c(F)cc2Cl)CC(c2ccccc2)=NO1 (centres unmarked) [Example 4-1] | 5 (Herbicidal effect/phytotoxicity was 90% or greater) |
| CC1(COc2cc(-c3c(Cl)n4n(c3=O)CCCC4)c(F)cc2Cl)CC(c2ccc(Cl)cc2)=NO1 (centres unmarked) [Example 4-8] | 5 (Herbicidal effect/phytotoxicity was 90% or greater) |

Tested on: Abutilon theophrasti (velvetleaf)
Assay: as above
Format: in vivo
Settings: 500 g a.i/ha, foliage treatment after emergence, about 14 days after treatment, score 0-5
Text: as §1

| SMILES | Herbicidal effect Abutilon theophrast |
| --- | --- |
| CCS(=O)(=O)Nc1cc(-c2c(Cl)n3n(c2=O)CCCC3)c(F)cc1Cl [Example 5-51] | 5 (Herbicidal effect/phytotoxicity was 90% or greater) |
| COc1cc(-c2c(Cl)n3n(c2=O)CCCC3)ccc1Cl [Example 1-44] | 5 (Herbicidal effect/phytotoxicity was 90% or greater) |
| C=CCOc1ccccc1Oc1cc(-c2c(Cl)n3n(c2=O)CCCC3)c(F)cc1Cl [Example 3-21] | 5 (Herbicidal effect/phytotoxicity was 90% or greater) |
| O=c1c(-c2cc([N+](=O)[O-])c(Cl)cc2F)c(C(F)(F)F)n2n1CCCC2 [Example 1-336] | 5 (Herbicidal effect/phytotoxicity was 90% or greater) |
| C#CCOc1cc(-c2c(Cl)n3n(c2=O)CCOCC3)ccc1Cl [Example 1-66] | 5 (Herbicidal effect/phytotoxicity was 90% or greater) |
| CC#CCOc1ccccc1Oc1cc(-c2c(Cl)n3n(c2=O)CCCC3)c(F)cc1Cl [Example 3-30] | 5 (Herbicidal effect/phytotoxicity was 90% or greater) |
| C=CCOC(=O)C=C(COc1ccccc1Oc1cc(-c2c(Cl)n3n(c2=O)CCCC3)c(F)cc1Cl)OC [Example 3-24] | 5 (Herbicidal effect/phytotoxicity was 90% or greater) |
| CC(C)Oc1ccccc1Oc1cc(-c2c(Cl)n3n(c2=O)CCCC3)c(F)cc1Cl [Example 3-8] | 5 (Herbicidal effect/phytotoxicity was 90% or greater) |
| COC(=O)C=C(COc1ccccc1Oc1cc(-c2c(Cl)n3n(c2=O)CCCC3)c(F)cc1Cl)OC [Example 3-23] | 5 (Herbicidal effect/phytotoxicity was 90% or greater) |
| CC1(COc2cc(-c3c(Cl)n4n(c3=O)CCCC4)c(F)cc2Cl)CC(c2ccccc2)=NO1 (centres unmarked) [Example 4-1] | 5 (Herbicidal effect/phytotoxicity was 90% or greater) |
| CC1(COc2cc(-c3c(Cl)n4n(c3=O)CCCC4)c(F)cc2Cl)CC(c2ccc(Cl)cc2)=NO1 (centres unmarked) [Example 4-8] | 5 (Herbicidal effect/phytotoxicity was 90% or greater) |

Tested on: Chenopodium album (common lambsquarters)
Assay: as above
Format: in vivo
Settings: 500 g a.i/ha, foliage treatment after emergence, about 14 days after treatment, score 0-5
Text: as §1

| SMILES | Herbicidal effect Chenopodium album |
| --- | --- |
| CCS(=O)(=O)Nc1cc(-c2c(Cl)n3n(c2=O)CCCC3)c(F)cc1Cl [Example 5-51] | 5 (Herbicidal effect/phytotoxicity was 90% or greater) |
| COc1cc(-c2c(Cl)n3n(c2=O)CCCC3)ccc1Cl [Example 1-44] | 5 (Herbicidal effect/phytotoxicity was 90% or greater) |
| C=CCOc1ccccc1Oc1cc(-c2c(Cl)n3n(c2=O)CCCC3)c(F)cc1Cl [Example 3-21] | 5 (Herbicidal effect/phytotoxicity was 90% or greater) |
| O=c1c(-c2cc([N+](=O)[O-])c(Cl)cc2F)c(C(F)(F)F)n2n1CCCC2 [Example 1-336] | 5 (Herbicidal effect/phytotoxicity was 90% or greater) |
| C#CCOc1cc(-c2c(Cl)n3n(c2=O)CCOCC3)ccc1Cl [Example 1-66] | 5 (Herbicidal effect/phytotoxicity was 90% or greater) |
| CC#CCOc1ccccc1Oc1cc(-c2c(Cl)n3n(c2=O)CCCC3)c(F)cc1Cl [Example 3-30] | 5 (Herbicidal effect/phytotoxicity was 90% or greater) |
| C=CCOC(=O)C=C(COc1ccccc1Oc1cc(-c2c(Cl)n3n(c2=O)CCCC3)c(F)cc1Cl)OC [Example 3-24] | 5 (Herbicidal effect/phytotoxicity was 90% or greater) |
| CC(C)Oc1ccccc1Oc1cc(-c2c(Cl)n3n(c2=O)CCCC3)c(F)cc1Cl [Example 3-8] | 5 (Herbicidal effect/phytotoxicity was 90% or greater) |
| COC(=O)C=C(COc1ccccc1Oc1cc(-c2c(Cl)n3n(c2=O)CCCC3)c(F)cc1Cl)OC [Example 3-23] | 5 (Herbicidal effect/phytotoxicity was 90% or greater) |
| CC1(COc2cc(-c3c(Cl)n4n(c3=O)CCCC4)c(F)cc2Cl)CC(c2ccccc2)=NO1 (centres unmarked) [Example 4-1] | 5 (Herbicidal effect/phytotoxicity was 90% or greater) |
| CC1(COc2cc(-c3c(Cl)n4n(c3=O)CCCC4)c(F)cc2Cl)CC(c2ccc(Cl)cc2)=NO1 (centres unmarked) [Example 4-8] | 5 (Herbicidal effect/phytotoxicity was 90% or greater) |

Tested on: corn
Assay: Test Example-4: phytotoxicity by a foliage treatment after weeds are generated under upland field conditions
Format: in vivo
Settings: 500 g a.i/ha, foliage treatment after emergence, about 14 days after treatment, score 0-5
Text: as §1

| SMILES | Phytotoxicity Corn |
| --- | --- |
| CCS(=O)(=O)Nc1cc(-c2c(Cl)n3n(c2=O)CCCC3)c(F)cc1Cl [Example 5-51] | 0 (Herbicidal effect/phytotoxicity was 0% to 10%) |
| COc1cc(-c2c(Cl)n3n(c2=O)CCCC3)ccc1Cl [Example 1-44] | 0 (Herbicidal effect/phytotoxicity was 0% to 10%) |
| C=CCOc1ccccc1Oc1cc(-c2c(Cl)n3n(c2=O)CCCC3)c(F)cc1Cl [Example 3-21] | 1 (Herbicidal effect/phytotoxicity was 10% to 30%) |
| O=c1c(-c2cc([N+](=O)[O-])c(Cl)cc2F)c(C(F)(F)F)n2n1CCCC2 [Example 1-336] | 0 (Herbicidal effect/phytotoxicity was 0% to 10%) |
| C#CCOc1cc(-c2c(Cl)n3n(c2=O)CCOCC3)ccc1Cl [Example 1-66] | 1 (Herbicidal effect/phytotoxicity was 10% to 30%) |
| CC#CCOc1ccccc1Oc1cc(-c2c(Cl)n3n(c2=O)CCCC3)c(F)cc1Cl [Example 3-30] | 1 (Herbicidal effect/phytotoxicity was 10% to 30%) |
| C=CCOC(=O)C=C(COc1ccccc1Oc1cc(-c2c(Cl)n3n(c2=O)CCCC3)c(F)cc1Cl)OC [Example 3-24] | 0 (Herbicidal effect/phytotoxicity was 0% to 10%) |
| CC(C)Oc1ccccc1Oc1cc(-c2c(Cl)n3n(c2=O)CCCC3)c(F)cc1Cl [Example 3-8] | 0 (Herbicidal effect/phytotoxicity was 0% to 10%) |
| COC(=O)C=C(COc1ccccc1Oc1cc(-c2c(Cl)n3n(c2=O)CCCC3)c(F)cc1Cl)OC [Example 3-23] | 0 (Herbicidal effect/phytotoxicity was 0% to 10%) |
| CC1(COc2cc(-c3c(Cl)n4n(c3=O)CCCC4)c(F)cc2Cl)CC(c2ccccc2)=NO1 (centres unmarked) [Example 4-1] | 0 (Herbicidal effect/phytotoxicity was 0% to 10%) |
| CC1(COc2cc(-c3c(Cl)n4n(c3=O)CCCC4)c(F)cc2Cl)CC(c2ccc(Cl)cc2)=NO1 (centres unmarked) [Example 4-8] | 2 (Herbicidal effect/phytotoxicity was 30% to 50%) |
